Reference: patent US20220280557A1, “Metabolic Reprogramming of Immune Cells for the Treatment or Prevention of Diseases and Disorders” (Arizona Board of Regents on behalf of Arizona State …, priority 2019, published 2022)

How the values were obtained:
[1] = Release of PFK15 from polymeric particles (plate reader); type: physicochemical; details: from paKG polymeric particles
Procedure: (§1) Another set of polymeric particles were generated using water-oil-water emulsion encapsulating bovine collagen type II (bc2—antigen) in the presence of PFK15 in the particles. Percentage encapsulation efficiency (EE) and percentage loading (μg of drug per mg of particles) for bc2, and PFK15 was determined using BCA assay, and absorbance spectrophotometer (plate reader), respectively (Table 1). Moreover, the release of PFK15 were studied using a plate reader, and it was determined that the polymeric particles released the drug in a sustained manner over a period of 30 days.

[2] = Encapsulation efficiency and loading (BCA assay, absorbance spectrophotometer); type: physicochemical; details: for % EE: Table 1, encapsulated in paKG particles; for % loading: Table 1, μg of drug per mg of particles
Procedure: In one embodiment, the metabolite-based polymer or polymeric particle has at least one of high loading and high encapsulation efficiency of the at least one therapeutic agent. Encapsulation efficiency is the percentage of drug that is successfully entrapped into a polymeric particle. In one embodiment, encapsulation efficiency (% EE) is calculated by (total drug added—free non-entrapped drug) divided by the total drug added. Loading capacity is the amount of drug loaded per unit weight of a polymeric particle, indicating the percentage of mass of the polymeric particle that is due to the encapsulated drug. In one embodiment, loading capacity (% LC) can be calculated by the amount of total entrapped drug divided by the total polymeric particle weight. In one embodiment, the polymeric particle has about 50% to about 100% encapsulation efficiency of the at least one therapeutic agent. In one embodiment, the polymeric particle has about 60% to about 100% encapsulation efficiency of the at least one therapeutic agent.
as §1

[3] = system: glycolysis (ECAR) in BMDCs; assay: Extracellular flux assay (ECAR); type: cell-based
Procedure: Reduction in CD86 expression by inhibiting glycolysis in DCs can affect pro-inflammatory DC activation in the presence of lipopolysaccharide (LPS), which is used to mimic inflammation in vitro (FIG. 5A). Therefore, it was tested if PFK15 by itself can block glycolysis in bone marrow-derived DCs (BMDCs) in the presence or absence of LPS. To assess this, the extracellular acidification rate (ECAR) of BMDCs was determined by extracellular flux assays. BMDCs treated with LPS only and no treatment were used as controls.
To test this, extracellular flux assays were used, and pre-activated DCs with LPS and no treatment were used as controls.

BMDCs = assay: CD86 / MHCII expression in BMDCs by flow cytometry; type: cell-based
Procedure: Next, it was assessed if the changes in BMDC glycolytic rates can affect surface co-stimulatory CD86 expression in BMDCs, using flow cytometry. In this study, pro-inflammatory DCs were defined as the frequency of […].
Since DCs indeed phagocytose paKG-based MPs in vivo, it was hypothesized that the observed reduction in paw swelling in the CIA mice treated with paKG(PFK15+bc2) MPs, may be due to the paKG(PFK15+bc2) MPs modulating DC function (FIG. 8A). Therefore, first effect of paKG(PFK15+bc2) MPs on in vitro cultured BMDCs in the form of altered CD86, MHCII, IL-10, IL-12p70 and TNFα expression in CD11c^+ cells was tested.

[4] = with and without LPS, vs LPS and no treatment

Molecule | period of sustained release of PFK15 [1] [days] | % EE [2] [%] | % loading [2] [µg/mg] | percentage encapsulation efficiency of PFK15 within paKG MPs ([2]; paKG(PFK15) MPs) [%] | percentage loading efficiency of PFK15 ([2]; per mg of paKG MPs) [µg/mg] | lowering of glycolysis (ECAR) ([3]; in the presence of LPS, vs LPS alone) [%] | ECAR in BMDCs ([3]; without LPS, vs no treatment) | frequency of pro-inflammatory BMDC populations (BMDCs; in the absence of LPS, vs no treatment) | decrease of frequency of CD86+MHCII+ of CD11c+ BMDCs (BMDCs; in the presence of LPS, vs LPS) | CD86 expression in CD11c+ cells (BMDCs; [4]) | anti-inflammatory BMDC populations (BMDCs; [4]) | percentage encapsulation efficiency of bc2 ([2]; paKG(PFK15+bc2) MPs) | percentage loading efficiency of bc2 ([2]; per mg of MPs, paKG(PFK15+bc2) MPs) [µg/mg]
O=C(C=Cc1ccc2ccccc2n1)c1ccncc1 [PFK15, 1-(4-pyridinyl)-3-(2-quinolinyl)-2-propen-1-one] | 30 | 68 | 1.7 | 68±17 | 2 ± 1 | 60 | did not significantly reduce ECAR | significantly decreased | approximately 8 fold | reduced CD86 expression | did not significantly decrease |  | 
bc2: bovine collagen type II (bc2) antigen |  | 60 | 3 |  |  |  |  |  |  |  |  | 60 % (wt/wt) | 3
